Assay results: patent publication US10660877B2 (BRISTOL-MYERS SQUIBB COMPANY, priority 2016, dated 2020)
Read-outs that look alike come from different tables or passages of the source.

What was measured:
human TLR9 = human TLR9 (Homo sapiens (Human), UniProt Q9NR96); experiment: TLR9 inhibition reporter assay (HEK-Blue cells, SEAP reporter, ODN2006 stimulation);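 note: compounds tested over 0.05 nM to 50 µM, 22 h incubation, inhibition taken as SEAP signal drop from agonist plus DMSO wells toward a known inhibitor control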
human TLR8 = human TLR8 (Homo sapiens (Human), UniProt Q9NR97); experiment: TLR8 inhibition reporter assay (HEK-Blue cells, SEAP reporter, R848 stimulation);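 note: compounds tested from 0.05 nM to 50 µM, 22 h at 37 °C, SEAP measured with HEK-Blue Detection, inhibition relative to agonist plus DMSO versus a known inhibitor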
human TLR7 = human TLR7 (Homo sapiens (Human), UniProt Q9NYK1); experiment: TLR7 inhibition reporter assay (HEK-Blue cells, SEAP reporter, gardiquimod stimulation); assay type: cell-based
[1] = read-out: TLR9 IC50, HEK-Blue cells overexpressing human TLR9, ODN2006 5 nM
[2] = read-out: TLR8 IC50, HEK-Blue cells overexpressing human TLR8, R848 15.9 μM
[3] = HEK-Blue cells overexpressing human TLR7, gardiquimod 7.5 μM
[4] = TLR9 IC50, HEK-Blue cells overexpressing human TLR9, ODN2006 5 nM
[5] = TLR8 IC50, HEK-Blue cells overexpressing human TLR8, R848 15.9 μM

human TLR9, sequence (Q9NR96 26-1032): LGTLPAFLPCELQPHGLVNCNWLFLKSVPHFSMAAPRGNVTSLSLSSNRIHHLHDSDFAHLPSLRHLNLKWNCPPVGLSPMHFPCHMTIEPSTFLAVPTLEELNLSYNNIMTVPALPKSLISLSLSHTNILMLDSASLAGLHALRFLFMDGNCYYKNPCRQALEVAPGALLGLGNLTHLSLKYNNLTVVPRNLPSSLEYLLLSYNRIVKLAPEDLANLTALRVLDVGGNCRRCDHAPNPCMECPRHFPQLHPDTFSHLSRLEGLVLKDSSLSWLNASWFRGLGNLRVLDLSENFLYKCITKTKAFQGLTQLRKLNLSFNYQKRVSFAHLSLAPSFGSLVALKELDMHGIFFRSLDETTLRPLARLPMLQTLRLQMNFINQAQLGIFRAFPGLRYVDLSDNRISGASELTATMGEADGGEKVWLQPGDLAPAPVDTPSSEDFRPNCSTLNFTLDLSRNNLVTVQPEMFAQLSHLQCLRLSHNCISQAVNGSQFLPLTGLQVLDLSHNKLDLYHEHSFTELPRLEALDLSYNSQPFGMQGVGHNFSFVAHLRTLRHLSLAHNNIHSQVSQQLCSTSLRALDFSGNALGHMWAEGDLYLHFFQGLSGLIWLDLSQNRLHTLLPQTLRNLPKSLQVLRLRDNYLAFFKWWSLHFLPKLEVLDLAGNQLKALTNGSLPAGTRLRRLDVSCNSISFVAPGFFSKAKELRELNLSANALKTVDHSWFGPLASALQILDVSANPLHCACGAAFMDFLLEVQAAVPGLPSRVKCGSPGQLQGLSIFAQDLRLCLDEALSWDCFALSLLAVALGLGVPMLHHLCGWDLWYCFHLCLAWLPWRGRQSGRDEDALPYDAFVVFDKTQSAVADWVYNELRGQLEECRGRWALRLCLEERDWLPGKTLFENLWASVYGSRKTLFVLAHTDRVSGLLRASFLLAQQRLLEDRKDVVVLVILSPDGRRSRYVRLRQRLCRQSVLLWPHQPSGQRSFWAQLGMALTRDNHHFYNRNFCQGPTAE
human TLR7, sequence (Q9NYK1 27-1049): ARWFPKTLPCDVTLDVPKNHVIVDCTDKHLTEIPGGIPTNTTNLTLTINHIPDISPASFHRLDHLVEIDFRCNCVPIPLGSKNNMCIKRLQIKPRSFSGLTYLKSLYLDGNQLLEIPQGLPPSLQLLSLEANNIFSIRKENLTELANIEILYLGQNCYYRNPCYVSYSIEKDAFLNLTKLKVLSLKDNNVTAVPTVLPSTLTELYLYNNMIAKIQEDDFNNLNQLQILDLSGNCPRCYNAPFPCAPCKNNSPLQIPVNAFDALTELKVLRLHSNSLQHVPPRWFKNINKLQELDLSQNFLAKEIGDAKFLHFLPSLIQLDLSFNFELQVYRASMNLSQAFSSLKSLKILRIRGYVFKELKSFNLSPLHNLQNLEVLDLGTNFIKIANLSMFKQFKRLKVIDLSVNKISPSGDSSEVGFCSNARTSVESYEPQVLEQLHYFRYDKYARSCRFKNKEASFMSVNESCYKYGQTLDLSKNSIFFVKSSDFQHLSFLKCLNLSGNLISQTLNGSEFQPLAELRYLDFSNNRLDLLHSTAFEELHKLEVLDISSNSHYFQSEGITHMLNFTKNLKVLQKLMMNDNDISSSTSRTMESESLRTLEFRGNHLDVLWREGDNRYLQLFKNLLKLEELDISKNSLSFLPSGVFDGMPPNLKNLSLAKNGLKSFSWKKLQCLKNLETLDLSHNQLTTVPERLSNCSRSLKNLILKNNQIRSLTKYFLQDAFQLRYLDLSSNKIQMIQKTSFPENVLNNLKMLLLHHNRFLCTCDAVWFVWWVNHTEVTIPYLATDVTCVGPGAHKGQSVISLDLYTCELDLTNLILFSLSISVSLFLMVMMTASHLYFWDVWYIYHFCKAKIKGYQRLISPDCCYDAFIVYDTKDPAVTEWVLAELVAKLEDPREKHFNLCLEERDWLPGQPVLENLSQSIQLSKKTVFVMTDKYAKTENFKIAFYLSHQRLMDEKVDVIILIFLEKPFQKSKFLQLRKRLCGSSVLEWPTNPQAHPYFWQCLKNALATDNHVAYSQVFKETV
human TLR8, sequence (Q9NR97 27-1041): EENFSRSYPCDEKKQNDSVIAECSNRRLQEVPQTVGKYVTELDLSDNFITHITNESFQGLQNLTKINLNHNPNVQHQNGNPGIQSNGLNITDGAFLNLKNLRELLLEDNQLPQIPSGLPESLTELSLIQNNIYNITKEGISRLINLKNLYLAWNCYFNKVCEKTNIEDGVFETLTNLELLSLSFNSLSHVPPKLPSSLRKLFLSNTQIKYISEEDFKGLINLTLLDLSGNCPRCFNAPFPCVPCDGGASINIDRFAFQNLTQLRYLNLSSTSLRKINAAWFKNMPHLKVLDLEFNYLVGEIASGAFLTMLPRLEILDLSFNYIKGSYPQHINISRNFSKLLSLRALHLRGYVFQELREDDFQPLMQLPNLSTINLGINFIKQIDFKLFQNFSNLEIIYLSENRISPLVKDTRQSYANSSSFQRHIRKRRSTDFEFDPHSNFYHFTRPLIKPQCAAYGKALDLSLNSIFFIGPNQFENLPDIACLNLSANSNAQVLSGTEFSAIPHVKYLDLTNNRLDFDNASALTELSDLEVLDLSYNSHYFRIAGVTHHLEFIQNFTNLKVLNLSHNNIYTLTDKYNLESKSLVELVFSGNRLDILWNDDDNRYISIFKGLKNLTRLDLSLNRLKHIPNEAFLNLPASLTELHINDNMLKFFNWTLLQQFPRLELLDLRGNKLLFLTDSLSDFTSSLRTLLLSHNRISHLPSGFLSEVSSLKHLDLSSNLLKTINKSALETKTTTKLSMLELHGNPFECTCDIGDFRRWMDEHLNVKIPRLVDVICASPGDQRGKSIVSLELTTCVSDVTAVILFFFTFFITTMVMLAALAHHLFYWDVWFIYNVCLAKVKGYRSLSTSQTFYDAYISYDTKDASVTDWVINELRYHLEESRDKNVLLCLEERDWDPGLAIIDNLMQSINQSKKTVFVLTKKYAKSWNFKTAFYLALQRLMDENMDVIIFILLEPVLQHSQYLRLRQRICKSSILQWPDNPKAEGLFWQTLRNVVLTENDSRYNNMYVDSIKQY

SMILES	IC50 (human TLR9; [1])	IC50 (human TLR8; [2])	IC50 (human TLR7; [3])	IC50 (human TLR9; read-out: TLR9 IC50, HEK-Blue cells, ODN2006 5 nM)	IC50 (human TLR8; read-out: TLR8 IC50, HEK-Blue cells, R848 15.9 μM)	IC50 (human TLR7; HEK-Blue cells, gardiquimod 7.5 μM)	IC50 (human TLR9; [4])	IC50 (human TLR8; [5])
Cc1cc(-c2[nH]c3ccc(C4CCN(C(=O)[C@H]5C[C@H]6CC[C@@H](C5)N6)CC4)cc3c2C(C)C)ccn1 [Example 580, ((1R,3r,5S)-8-azabicyclo[3.2.1]octan-3-yl)(4-(3-isopropyl-2-(2-methylpyridin-4-yl)-1H-indol-5-yl)piperidin-1-yl)methanone]	0.508 µM	0.0537 µM	0.0672 µM					
COCCN1CCC(c2ccc3[nH]c(-c4cc(C)nc(C)c4)c(C(C)C)c3c2)CC1 [Example 325, 2-(2,6-dimethylpyridin-4-yl)-3-isopropyl-5-(1-(2-methoxyethyl)piperidin-4-yl)-1H-indole]	0.343 µM	0.0038 µM	0.0031 µM					
Cc1cc(-c2[nH]c3ccc(C4CCN(C(=O)CN(C)C5CCS(=O)(=O)C5)CC4)cc3c2C(C)C)cc(C)n1 (stereo not drawn) [Example 147, 1-(4-(2-(2,6-dimethylpyridin-4-yl)-3-isopropyl-1H-indol-5-yl)piperidin-1-yl)-2-((1,1-dioxidotetrahydrothiophen-3-yl)(methyl)amino)ethan-1-one]	3.84 µM	0.0423 µM	0.0067 µM					
Cc1cc(-c2[nH]c3cc(C(F)(F)F)c(C4CCNCC4)cc3c2C(C)C)ccn1 [Example 74, 3-isopropyl-2-(2-methylpyridin-4-yl)-5-(piperidin-4-yl)-6-(trifluoromethyl)-1H-indole]	1.16 µM	0.437 µM	0.0131 µM					
Cc1cc(-c2[nH]c3ccc(C4CCN(C(=O)CN5CC6CCC(C5)O6)CC4)cc3c2C(C)C)cc(C)n1 [Example 389, 2-(8-oxa-3-azabicyclo[3.2.1]octan-3-yl)-1-(4-(2-(2,6-dimethylpyridin-4-yl)-3-isopropyl-1H-indol-5-yl)piperidin-1-yl)ethan-1-one]	0.88 µM	0.0313 µM	0.0103 µM					
Cc1cc(-c2[nH]c3ccc(C4CCN(Cc5ccccc5)CC4)cc3c2C(C)C)cc(C)n1 [Example 318, 5-(1-benzylpiperidin-4-yl)-2-(2,6-dimethylpyridin-4-yl)-3-isopropyl-1H-indole]	0.779 µM	0.0126 µM	0.0254 µM					
Cc1cc(-c2[nH]c3ccc(C4CCN(C5CCCC5)CC4)cc3c2C(C)C)cc(C)n1 [Example 326, 5-(1-cyclopentylpiperidin-4-yl)-2-(2,6-dimethylpyridin-4-yl)-3-isopropyl-1H-indole]	1.12 µM	0.0292 µM	0.0161 µM					
Cc1cc(-c2[nH]c3ccc(C4CCN(CC5CC5)CC4)cc3c2C(C)C)c(C)cn1 [Example 871, 5-(1-(cyclopropylmethyl)piperidin-4-yl)-2-(2,5-dimethylpyridin-4-yl)-3-isopropyl-1H-indole]				1.84 µM	0.0032 µM	0.01 µM		
CC(C)c1c(-c2ccnc(CN)c2)[nH]c2ccc(C3CCNCC3)cc12 [Example 14, (4-(3-isopropyl-5-(piperidin-4-yl)-1H-indol-2-yl)pyridin-2-yl)methanamine]	1.2 µM	0.187 µM	0.423 µM					
Cc1cc(-c2[nH]c3ccc(C4CCN(CC(O)C(F)(F)F)CC4)cc3c2C(C)C)cc(C)n1 (stereo not drawn) [Example 316, 3-(4-(2-(2,6-dimethylpyridin-4-yl)-3-isopropyl-1H-indol-5-yl)piperidin-1-yl)-1,1,1-trifluoropropan-2-ol]	0.78 µM	0.0023 µM	0.0119 µM					
Cc1cc(-c2[nH]c3ccc(C4CCNCC4)cc3c2C(C)C)c(C)cn1 [Example 31, 2-(2,5-dimethylpyridin-4-yl)-3-isopropyl-5-(piperidin-4-yl)-1H-indole]	0.963 µM	0.001 µM	0.0026 µM					
Cc1cc(-c2[nH]c3ccc(C4CCN(CC(O)C(F)(F)F)CC4)cc3c2C(C)C)cc(C)n1 (stereo not drawn) [Example 317, 3-(4-(2-(2,6-dimethylpyridin-4-yl)-3-isopropyl-1H-indol-5-yl)piperidin-1-yl)-1,1-trifluoropropan-2-ol]	1.12 µM	0.0132 µM	0.0137 µM					
Cc1cc(-c2[nH]c3ccc(C4CCN(CC(=O)N(C)C5CCOC5)CC4)cc3c2C(C)C)cc(C)n1 (stereo not drawn) [Example 289, 2-(4-(2-(2,6-dimethylpyridin-4-yl)-3-isopropyl-1H-indol-5-yl)piperidin-1-yl)-N-methyl-N-(tetrahydrofuran-3-yl)acetamide]	0.697 µM	0.0169 µM	0.006 µM					
Cc1cc(-c2[nH]c3ccc(C4CCN(CC(=O)N5CC[C@@H](O)C5)CC4)cc3c2C(C)C)cc(C)n1 [Example 275, (R)-2-(4-(2-(2,6-dimethylpyridin-4-yl)-3-isopropyl-1H-indol-5-yl)piperidin-1-yl)-1-(3-hydroxypyrrolidin-1-yl)ethan-1-one]			0.0016 µM				0.067 µM	0.0068 µM
Cc1cc(-c2[nH]c3ccc(C4CCN(CC(=O)NC5CCOC5)CC4)cc3c2C(C)C)cc(C)n1 (stereo not drawn) [Example 282, 2-(4-(2-(2,6-dimethylpyridin-4-yl)-3-isopropyl-1H-indol-5-yl)piperidin-1-yl)-N-(tetrahydrofuran-3-yl)acetamide]	2.7 µM	0.009 µM	0.0037 µM					
Cc1cc(-c2[nH]c3ccc(C4CCN(CC5CC5)CC4)cc3c2C2CC2)cc(C)n1 [Example 667, 3-cyclopropyl-5-(1-(cyclopropylmethyl)piperidin-4-yl)-2-(2,6-dimethylpyridin-4-yl)-1H-indole]	0.086 µM	0.0321 µM	0.019 µM					
Cc1cc(-c2[nH]c3ccc(C4CCN(CC(O)c5ccccc5)CC4)cc3c2C(C)C)ccn1 (stereo not drawn) [Example 662, 2-(4-(3-isopropyl-2-(2-methylpyridin-4-yl)-1H-indol-5-yl)piperidin-1-yl)-1-phenylethan-1-ol]	1.15 µM	0.0296 µM	0.0606 µM					
Cc1cc(-c2[nH]c3ccc(C4CCNCC4)cc3c2C(C)C)c(N)c(C)n1 [Example 29, 4-(3-isopropyl-5-(piperidin-4-yl)-1H-indol-2-yl)-2,6-dimethylpyridin-3-amine]	0.264 µM	0.0188 µM	0.0021 µM					
CCNC(=O)CN1CCC(c2ccc3[nH]c(-c4cc(C)nc(C)c4)c(C(C)C)c3c2)CC1 [Example 235, 2-(4-(2-(2,6-dimethylpyridin-4-yl)-3-isopropyl-1H-indol-5-yl)piperidin-1-yl)-N-ethylacetamide]			0.0052 µM				0.965 µM	0.0141 µM
Cc1cc(-c2[nH]c3ccc(C4CCN(CC(=O)N(C)C)CC4)cc3c2C(C)C)cc(F)n1 [Example 500, 2-(4-(2-(2-fluoro-6-methylpyridin-4-yl)-3-isopropyl-1H-indol-5-yl)piperidin-1-yl)-N,N-dimethylacetamide]	3.32 µM	0.0142 µM	0.0063 µM					
Cc1cc(-c2[nH]c3ccc(C4CCN(CC(C)O)CC4)cc3c2C(C)C)cc(C)n1 (stereo not drawn) [Example 331, 1-(4-(2-(2,6-dimethylpyridin-4-yl)-3-isopropyl-1H-indol-5-yl)piperidin-1-yl)propan-2-ol]	0.566 µM	0.0035 µM	0.0024 µM					
Cc1cc(-c2[nH]c3ccc(C4CCN(C5COC5)CC4)cc3c2C(C)C)c(F)cn1 [Example 721, 2-(5-fluoro-2-methylpyridin-4-yl)-3-isopropyl-5-(1-(oxetan-3-yl)piperidin-4-yl)-1H-indole]	19.8 µM	0.0074 µM	0.0138 µM					
CCc1c(-c2ccnc(O)c2)[nH]c2ccc(C3CCN(C4CCN(CC(C)C)CC4)CC3)cc12 [Example 765, 4-(3-ethyl-5-(1′-isobutyl-[1,4′-bipiperidin]-4-yl)-1H-indol-2-yl)pyridin-2-ol]	0.181 µM	0.341 µM	11 µM					
Cc1cc(-c2[nH]c3ccc(C4CCN(CC(=O)NC5CC5)CC4)cc3c2C(C)C)cc(C)n1 [Example 212, N-cyclopropyl-2-(4-(2-(2,6-dimethylpyridin-4-yl)-3-isopropyl-1H-indol-5-yl)piperidin-1-yl)acetamide]	0.648 µM	0.0065 µM	0.0031 µM					
Cc1cc(-c2[nH]c3ccc(C4CCN(C5CCOC(C)(C)C5)CC4)cc3c2C(C)C)cc(C)n1 (stereo not drawn) [Example 453, 2-(2,6-dimethylpyridin-4-yl)-5-(1-(2,2-dimethyltetrahydro-2H-pyran-4-yl)piperidin-4-yl)-3-isopropyl-1H-indole]	0.255 µM	0.0065 µM	0.0085 µM					
Cc1cc(-c2[nH]c3ccc(C4CCN(S(=O)(=O)c5ccc(Cl)cc5)CC4)cc3c2C(C)C)ccn1 [Example 542, 5-(1-((4-chlorophenyl)sulfonyl)piperidin-4-yl)-3-isopropyl-2-(2-methylpyridin-4-yl)-1H-indole]	> 50 µM	1.48 µM	1.16 µM					
COc1ncc(CN2CCC(c3ccc4[nH]c(-c5cc(C)ncc5F)c(C(C)C)c4c3)CC2)cn1 [Example 733, 2-(5-fluoro-2-methylpyridin-4-yl)-3-isopropyl-5-(1-((2-methoxypyrimidin-5-yl)methyl)piperidin-4-yl)-1H-indole]	1.81 µM	0.0042 µM	0.0111 µM					
CCc1c(-c2ccnc(OC)c2)[nH]c2ccc(C3CCN(C4C[C@H]5CC[C@@H](C4)N5C)CC3)cc12 (stereo partly drawn) [Example 791, 3-ethyl-2-(2-methoxypyridin-4-yl)-5-(1-((1R,3s,5S)-8-methyl-8-azabicyclo[3.2.1]octan-3-yl)piperidin-4-yl)-1H-indole]	1.6 µM	0.158 µM	0.666 µM					
